Test [1] addresses T1, Cbl (aa49-434) (Homo sapiens, UniProt P22681).
T1 construct: Cbl (aa49-434, in-house); made in house
T1 sequence (P22681 49-434): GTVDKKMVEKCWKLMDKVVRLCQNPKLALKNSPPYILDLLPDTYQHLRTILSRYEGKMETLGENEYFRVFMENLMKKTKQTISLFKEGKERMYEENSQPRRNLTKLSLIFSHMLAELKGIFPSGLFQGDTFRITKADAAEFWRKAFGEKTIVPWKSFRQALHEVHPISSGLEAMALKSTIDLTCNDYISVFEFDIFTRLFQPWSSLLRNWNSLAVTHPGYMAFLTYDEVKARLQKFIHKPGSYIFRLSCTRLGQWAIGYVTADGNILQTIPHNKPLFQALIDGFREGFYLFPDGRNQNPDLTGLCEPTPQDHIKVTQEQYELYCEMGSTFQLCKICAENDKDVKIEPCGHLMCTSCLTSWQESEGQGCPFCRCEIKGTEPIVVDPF
The experiment in a line: Co-expressed Cbl with BirA biochemical assay (CBL/E2-Ub binding, HTRF). The settings on record: 0.6 nM Cbl co-expressed with BirA, read-out: co-express CBL/E2-Ub-binding assay IC50. From the text:
(§1) The assay in the absence of a Cbl-b/Cbl inhibitor, where phosphorylation of Cbl-b/Cbl by the Src kinase allows UbcH5B-Ub to bind to Cbl-b/Cbl and brings the Bodipy-Fluorescein tagged ubiquitin in proximity to the streptavidin-terbium bound to the N-terminal biotinylated Avi-tagged Cbl-b/Cbl. […] The lack of a FRET signal indicates Cbl-b/Cbl is inhibited by the Cbl-b/Cbl inhibitor.
On the technique in general: Time-resolved FRET reads energy transfer from a long-lived donor to a nearby acceptor.

Test [2] addresses T2, Cbl-b (aa36-427) (Homo sapiens, UniProt Q13191).
T2 construct: Cbl-b (aa36-427, in-house); made in house
The experiment in a line: Co-expressed Cbl-b with BirA biochemical assay (CBLB/E2-Ub binding, HTRF). The settings on record: 0.6 nM Cbl-b co-expressed with BirA, HTRF; read-out: co-express CBLB/E2-Ub-binding assay IC50.
Source text: as §1

T2 sequence (Q13191 36-427): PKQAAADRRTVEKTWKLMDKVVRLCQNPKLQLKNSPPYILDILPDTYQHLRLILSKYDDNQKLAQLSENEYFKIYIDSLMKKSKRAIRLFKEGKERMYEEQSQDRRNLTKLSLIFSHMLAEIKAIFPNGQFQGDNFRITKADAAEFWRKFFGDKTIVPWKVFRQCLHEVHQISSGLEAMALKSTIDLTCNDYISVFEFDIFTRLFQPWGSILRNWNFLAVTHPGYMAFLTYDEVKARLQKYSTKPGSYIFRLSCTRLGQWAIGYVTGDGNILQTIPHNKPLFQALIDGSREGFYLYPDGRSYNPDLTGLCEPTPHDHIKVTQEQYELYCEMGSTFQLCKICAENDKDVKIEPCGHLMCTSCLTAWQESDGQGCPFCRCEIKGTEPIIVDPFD

Consider `C[C@H](NCc1cc(C(=O)Nc2cccc([C@]3(c4nncn4C)C[C@@H](CC#N)C3)c2)c2nccn2c1)C1CC1` [Compound A27, N-(3-((1s,3R)-3-(cyanomethyl)-1-(4-methyl-4H-1,2,4-triazol-3-yl)cyclobutyl)phenyl)-6-((((S)-1-cyclopropylethyl)amino)methyl)imidazo[1,2-a]pyridine-8-carboxamide], for which the IC50 in test [1] came out at 8 nM; in test [2], 1.4 nM.
Taken in the same sequence, the figures for `C[C@H]1CCCN(Cc2cc(C(=O)Nc3cccc([C@]4(Cc5nncn5C)C[C@@H](C#N)C4)c3)nc3c2NCC32CC2)C1` [Compound C17, N-(3-((1r,3S)-3-cyano-1-((4-methyl-4H-1,2,4-triazol-3-yl)methyl)cyclobutyl)phenyl)-7′-(((S)-3-methylpiperidin-1-yl)methyl)-1′,2′-dihydrospiro[cyclopropane-1,3′-pyrrolo[3,2-b]pyridine]-5′-carboxamide] were 1.1 nM and 1.5 nM.
For the compound `Cn1cnnc1[C@]1(c2cncc(NC(=O)c3cc(CNC4(C)CCC4)c4[nH]cc(Cl)c4n3)c2)C[C@H](C)C1` [Compound B52, 3-chloro-N-(5-((1s, 3s)-3-methyl-1-(4-methyl-4H-1,2,4-triazol-3-yl)cyclobutyl)pyridin-3-yl)-7-(((1-methylcyclobutyl)amino)methyl)-1H-pyrrolo[3,2-b]pyridine-5-carboxamide], the IC50 in test [1] came to 19 nM; in test [2], 5 nM.
On the same counts, the results for `C[C@H](NCc1cc(C(=O)Nc2cccc([C@]3(c4nncn4C)C[C@@H](C)C3)c2)c2ncc(Cl)n2c1)C1CCC1` [Compound A69, 3-chloro-6-((((S)-1-cyclobutylethyl)amino)methyl)-N-(3-((1s,3R)-3-methyl-1-(4-methyl-4H-1,2,4-triazol-3-yl)cyclobutyl)phenyl)imidazo[1,2-a]pyridine-8-carboxamide] are 1.7 nM and 0.8 nM.
For `Cn1cnnc1[C@]1(c2cncc(NC(=O)c3cc(CNCC4CCC4)c4c(n3)C(F)(F)CC4)c2)C[C@H](C)C1` [Compound C52, 4-{[(cyclobutylmethyl)amino]methyl}-7,7-difluoro-N-{5-[(1r, 3s)-3-methyl-1-(4-methyl-1,2,4-triazol-3-yl)cyclobutyl]pyridin-3-yl}-5H,6H-cyclopenta[b]pyridine-2-carboxamide], the IC50 in test [1] was 14.8 nM; in test [2], 3.3 nM.
In the case of `C[C@H]1CCCN(Cc2cc(C(=O)Nc3cccc([C@]4(c5nncn5C)C[C@@H](CC#N)C4)c3)c3ncc(F)n3c2)C1` [Compound A12, 3-fluoro-6-{[(3S)-3-methylpiperidin-1-yl]methyl}-N-{3-[(1s, 3s)-3-(cyanomethyl)-1-(4-methyl-1,2,4-triazol-3-yl)cyclobutyl]phenyl}imidazo[1,2-a]pyridine-8-carboxamide], the IC50 in test [1] was found to be 32.4 nM; in test [2], 3.9 nM.
`Cn1cnnc1[C@]1(c2cccc(NC(=O)c3cc(CNC4(C)CC4)cn4cc(F)nc34)c2)C[C@H](CC#N)C1` [Compound A84, N-(3-((1s, 3s)-3-(cyanomethyl)-1-(4-methyl-4H-1,2,4-triazol-3-yl)cyclobutyl)phenyl)-2-fluoro-6-(((1-methylcyclopropyl)amino)methyl)imidazo[1,2-a]pyridine-8-carboxamide]: the IC50 was 12 nM in test [1] and 0.5 nM in test [2].
Taken in the same sequence, the figures for `C[C@H]1CCCN(Cc2cc(C(=O)Nc3cccc([C@]4(c5nncn5C)C[C@@H](CC#N)C4)c3)nc3c2CCC3(C)C)C1` [Compound C9, N-(3-((1s,3R)-3-(cyanomethyl)-1-(4-methyl-4H-1,2,4-triazol-3-yl)cyclobutyl)phenyl)-7,7-dimethyl-4-(((S)-3-methylpiperidin-1-yl)methyl)-6,7-dihydro-5H-cyclopenta[b]pyridine-2-carboxamide] were 15.7 nM and 0.9 nM.
With `Cn1ccc2nc(C(=O)Nc3cccc([C@]4(c5nncn5C)C[C@@H](CC#N)C4)c3)cc(CNC3(C)CC3)c21` [Compound B57, N-(3-((1s, 3s)-3-(cyanomethyl)-1-(4-methyl-4H-1,2,4-triazol-3-yl)cyclobutyl)phenyl)-1-methyl-7-(((1-methylcyclopropyl)amino)methyl)-1H-pyrrolo[3,2-b]pyridine-5-carboxamide], the values for the IC50 in test [1] and in test [2] were 15 nM and 1.3 nM, respectively.
As for `Cn1cnnc1[C@]1(c2cccc(NC(=O)c3cc(CNC4(C)CCC4)c4c(n3)C(C)(C)CN4)c2)C[C@H](CC#N)C1` [Compound C21, N-(3-((1s, 3s)-3-(cyanomethyl)-1-(4-methyl-4H-1,2,4-triazol-3-yl)cyclobutyl)phenyl)-3,3-dimethyl-7-(((1-methylcyclobutyl)amino)methyl)-2,3-dihydro-1H-pyrrolo[3,2-b]pyridine-5-carboxamido], the IC50 worked out at 17.7 nM in test [1] and 1.8 nM in test [2].
Taken in the same sequence, the figures for `Cn1cnnc1C[C@]1(c2cccc(NC(=O)c3cc(CNC4CCCCC4)c4c(n3)C(C)(C)CO4)c2)C[C@H](C#N)C1` [Compound C48, N-(3-((1r, 3r)-3-cyano-1-((4-methyl-4H-1,2,4-triazol-3-yl)methyl)cyclobutyl)phenyl)-7-((cyclohexylamino)methyl)-3,3-dimethyl-2,3-dihydrofuro[3,2-b]pyridine-5-carboxamide] were 6.3 nM and 2.7 nM.
With `CC[C@H](C)NCc1cc(C(=O)Nc2cncc([C@]3(c4nncn4C)C[C@@H](C)C3)c2)nc2cc[nH]c12` [Compound B47, 7-((((S)-sec-butyl)amino)methyl)-N-(5-((1s,3R)-3-methyl-1-(4-methyl-4H-1,2,4-triazol-3-yl)cyclobutyl)pyridin-3-yl)-1H-pyrrolo[3,2-b]pyridine-5-carboxamide], the IC50 was determined as 6.1 nM in test [1] and 2.2 nM in test [2].
Take `C[C@H]1CCCN(Cc2cc(C(=O)Nc3cccc(C4(Cc5nncn5C)COC4)c3)nc3cc[nH]c23)C1` [Compound B6, (S)—N-(3-(3-((4-methyl-4H-1,2,4-triazol-3-yl)methyl)oxetan-3-yl)phenyl)-7-((3-methylpiperidin-1-yl)methyl)-1H-pyrrolo[3,2-b]pyridine-5-carboxamide]: the results for the IC50 in test [1] and in test [2] were 6.9 nM and 4 nM, respectively.
As to `Cc1cnc2c(C(=O)Nc3cccc([C@]4(c5nncn5C)C[C@@H](C)C4)c3)cc(CN3CC[C@H](F)[C@H](C)C3)cn12` [Compound A46, 6-(((3R,4S)-4-fluoro-3-methylpiperidin-1-yl)methyl)-3-methyl-N-(3-((1s,3S)-3-methyl-1-(4-methyl-4H-1,2,4-triazol-3-yl)cyclobutyl)phenyl)imidazo[1,2-a]pyridine-8-carboxamide], the IC50 in test [1] was 5.9 nM; in test [2], 1.6 nM.
Turning to `C[C@H]1CCCN(Cc2cc(C(=O)Nc3cccc(C4(Cc5nncn5C)COC4)c3)c3nc(F)cn3c2)C1` [Compound A7, (S)-2-fluoro-N-(3-(3-((4-methyl-4H-1,2,4-triazol-3-yl)methyl)oxetan-3-yl)phenyl)-6-((3-methylpiperidin-1-yl)methyl)imidazo[1,2-a]pyridine-8-carboxamide], the IC50 in test [1] came out at 14.4 nM; in test [2], 4.4 nM.
Taken in the same sequence, the figures for `Cn1cnnc1[C@]1(c2cncc(NC(=O)c3cc(CNC4(C)CC4)cc4c(F)cnn34)c2)C[C@H](C)C1` [Compound A93, 3-fluoro-N-(5-((1s, 3s)-3-methyl-1-(4-methyl-4H-1,2,4-triazol-3-yl)cyclobutyl)pyridin-3-yl)-5-(((1-methylcyclopropyl)amino)methyl)pyrazolo[1,5-a]pyridine-7-carboxamide] were 5.2 nM and 1.6 nM.
As for `Cn1cnnc1[C@]1(c2cccc(NC(=O)c3cc(CNC4CCCCCC4)c4c(n3)C(C)(C)CC4)c2)C[C@H](CC#N)C1` [Compound C54, N-(3-((1s, 3s)-3-(cyanomethyl)-1-(4-methyl-4H-1,2,4-triazol-3-yl)cyclobutyl)phenyl)-4-((cycloheptylamino)methyl)-7,7-dimethyl-6,7-dihydro-5H-cyclopenta[b]pyridine-2-carboxamide], the figures for the IC50 in test [1] and in test [2] were 6.8 nM and 1.3 nM, respectively.
Regarding `C[C@H](NCc1cc(C(=O)Nc2cccc([C@]3(c4nncn4C)C[C@@H](C)C3)c2)nc2c(F)c[nH]c12)C1CC1` [Compound B37, 7-((((S)-1-cyclopropylethyl)amino)methyl)-3-fluoro-N-(3-((1s,3R)-3-methyl-1-(4-methyl-4H-1,2,4-triazol-3-yl)cyclobutyl)phenyl)-1H-pyrrolo[3,2-b]pyridine-5-carboxamide], the IC50 came out at 4.5 nM in test [1] and 0.8 nM in test [2].
As to `Cn1cnnc1[C@]1(c2cccc(NC(=O)c3cc(CNC4(C)CCC4)c4c(n3)C(C)(C)CC4)c2)C[C@H](CC#N)C1` [Compound C40, N-(3-((1s, 3s)-3-(cyanomethyl)-1-(4-methyl-4H-1,2,4-triazol-3-yl)cyclobutyl)phenyl)-7,7-dimethyl-4-(((1-methylcyclobutyl)amino)methyl)-6,7-dihydro-5H-cyclopenta[b]pyridine-2-carboxamide], the IC50 in test [1] was 11.5 nM; in test [2], 2.5 nM.
